Assay results reported in PubChem BioAssay (NCI).
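Compound exposure: 48 hours, 5 concentrations, 96-well plates. TGI denotes the concentration required for complete inhibition of growth.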

Key:
Test in all cases: NCI anticancer screen, dose series, 48 h
LOX IMVI melanoma = tested on: LOX IMVI melanoma
HCC-2998 colon = tested on: HCC-2998 colon
SN12C renal = tested on: SN12C renal
MDA-MB-231 breast = tested on: MDA-MB-231 breast
UO-31 renal = tested on: UO-31 renal
NCI-H23 lung = tested on: NCI-H23 lung
T-47D breast = tested on: T-47D breast
M14 melanoma = tested on: M14 melanoma
UACC-257 melanoma = tested on: UACC-257 melanoma
NCI-H226 lung = tested on: NCI-H226 lung

SMILES	TGI (LOX IMVI melanoma)	TGI (HCC-2998 colon)	TGI (SN12C renal)	TGI (MDA-MB-231 breast)	TGI (UO-31 renal)	TGI (NCI-H23 lung)	TGI (T-47D breast)	TGI (M14 melanoma)	TGI (UACC-257 melanoma)	TGI (NCI-H226 lung)
O=C1c2ccccc2C2(c3ccc(Cl)cc3)N[C@@H]3CCCC[C@@H]3N12 (stereo not given in full)	> 100 µM	> 100 µM	> 100 µM	> 100 µM	> 100 µM	> 100 µM	> 100 µM	> 100 µM	> 100 µM	> 100 µM
Cn1c(O)c(/C=N/c2ncccn2)c(=O)[nH]c1=O	> 100 µM		> 100 µM	> 100 µM	> 100 µM	> 100 µM	> 100 µM	> 100 µM	> 100 µM	> 100 µM
O=P1(N(CCCl)CCCl)NCCCO1 (stereo not given)	> 250 µM	> 205 µM	> 250 µM	> 250 µM	> 250 µM	> 250 µM	> 250 µM	> 250 µM	> 250 µM	> 250 µM
CC(=O)NC1C(OCc2ccccc2)OC(CO)C(O)C1OCC(=O)N[C@@H](C)C(=O)N[C@H](CCC(=O)NCCCCNc1c2ccccc2nc2cccc([N+](=O)[O-])c12)C(N)=O (stereo not given in full)	11.5 µM	2.91 µM	14.5 µM	9.56 µM	6.62 µM	2.54 µM	9.51 µM	> 22.2 µM	5.36 µM	7.49 µM
CCOC(=O)c1c(SCCN2CCCCC2)n(-c2ccccc2)c(=S)n(-c2ccccc2)c1=O	26.2 µM	> 53.4 µM	37.5 µM	38.4 µM	33.9 µM	34.8 µM	8.27 µM	81.6 µM	17.1 µM	16.9 µM
OCC1c2ccccc2-n2nc(-c3ccccc3)c(O)c21 (stereo not given)	47 µM	44.8 µM	36.8 µM	> 100 µM	92.4 µM	> 100 µM	> 100 µM		> 100 µM	> 100 µM
C=C1CC(Cn2cc(Br)c(=O)[nH]c2=O)(c2ccc(Br)cc2)OC1=O (stereo not given)	3.64 µM	8.4 µM	20.8 µM	17.4 µM	27.1 µM	10.6 µM	5.04 µM	3.22 µM	4.11 µM	36.6 µM
CC(=O)NCC1OC2COC(c3ccccc3)OC2C2N=C(c3ccccc3)OC12 (stereo not given)	> 100 µM	> 100 µM	> 100 µM	> 100 µM	> 100 µM	> 100 µM	57.7 µM	> 100 µM	> 100 µM	> 100 µM
C/C(=N\NC(=O)c1ccncc1)c1cccc(C(F)(F)F)c1	> 10 µM	> 10 µM	> 10 µM	> 10 µM	> 10 µM	> 10 µM	> 10 µM	> 10 µM	> 10 µM	> 10 µM
CN1C(=O)C(CCO)(C(C)(C)C)c2ccccc21 (stereo not given)	> 100 µM	> 100 µM	> 100 µM	> 100 µM	> 100 µM	> 100 µM	> 100 µM	> 100 µM	> 100 µM	> 100 µM
C=C(C)C(=O)O[C@H]1CC2(CO)O[C@@H]2CC/C(COC(C)=O)=C/C2OC(=O)C(=C)[C@@H]21 (stereo not given in full)	> 60 µM	> 91.6 µM	> 100 µM	> 100 µM	59.4 µM	> 100 µM	> 79.2 µM	49.1 µM	43.1 µM	> 100 µM
Nc1cc2ncnc(Nc3cccc(Br)c3)c2cn1	> 100 µM		> 100 µM	> 100 µM	> 100 µM	> 100 µM	> 100 µM	> 100 µM	> 100 µM	71 µM
CCOC(=O)NC(OCc1ccccc1)(C(=O)OC)C(F)(F)F (stereo not given)	> 100 µM	> 100 µM	> 100 µM	> 100 µM	> 100 µM	> 100 µM	> 100 µM	> 100 µM	> 100 µM	
Cc1cc2nc3c(N)nn(CCN(C)C)c3nc2cc1C	76.2 µM	> 100 µM	> 100 µM	> 100 µM	> 100 µM	> 100 µM	> 100 µM	> 100 µM	> 100 µM	79.4 µM
CC(=O)Nc1nc(C)c(S(=O)(=O)NC(=O)N2c3ccccc3CCc3ccccc32)s1	> 100 µM	> 100 µM	> 100 µM	> 100 µM	> 100 µM	> 100 µM	> 100 µM	> 100 µM	> 100 µM	
O=C(c1ccccc1)c1ccc2nc(-c3c(Cl)c(Cl)c(Cl)c(Cl)c3C(=O)Nc3ccco3)[nH]c2c1	> 100 µM	53.1 µM	> 100 µM	> 100 µM	> 100 µM	> 100 µM	> 100 µM	> 100 µM	> 100 µM	> 100 µM
CCn1c(SCc2nnc(Nc3ccccc3)s2)nc2ccccc2c1=O	25.4 µM	31.7 µM	18.2 µM	10.2 µM	12.1 µM	19.4 µM	27 µM	> 61.4 µM	51.9 µM	7.75 µM
CCOC(=O)c1nc2ccccc2nc1Nc1ccc(F)cc1	> 100 µM	> 100 µM	> 100 µM	24.2 µM	> 100 µM	69.1 µM	> 86.1 µM	> 100 µM	> 100 µM	> 63.7 µM
COc1c(-c2ccc(F)cc2)oc2cc(O)cc(O)c2c1=O	54.5 µM	31.9 µM	83.6 µM	43.9 µM	42.1 µM	78.2 µM	56.9 µM	> 100 µM		
C/C=C\C(CC(=O)NCCc1c[nH]c2ccccc12)CC(=O)OC (stereo not given)		> 100 µM		> 100 µM	> 100 µM	> 100 µM	> 100 µM	> 100 µM	> 100 µM	
CCCC(CC)c1cc(O)c(O)cc1C(CC)CCC (stereo not given)	> 10 µM	> 10 µM	> 10 µM	> 10 µM	> 10 µM	> 10 µM	> 10 µM	> 10 µM	> 10 µM	> 10 µM
Cn1c(=O)[nH]n(-c2ccc3ccccc3c2)c1=O	> 100 µM	> 100 µM	> 100 µM	> 100 µM	> 100 µM	> 100 µM	> 100 µM	> 100 µM	> 100 µM	> 100 µM
